Measurements: patent US5276054A, “Substituted hexahydrobenzopyran derivatives as angiotensin II antagonists” (Merck & Co., Inc., priority 1992, dated 1994)
Where “and” joins values, the source holds several entries; their conditions need not be identical. Equal entries are not always repeated.

Key:
[1] = target: T1, angiotensin II receptor, site 1 (Oryctolagus cuniculus, UniProt P34976); assay: Receptor binding assay using rabbit aortae membrane preparation (125I-Sar1 Ile8-angiotensin II), site 1; details: rabbit aortae membranes, 37° C., 90 minutes
T1 construct: tissue Pel-Freeze Biologicals; host or cells: rabbit aorta, membranes
T1 sequence (P34976 1-359): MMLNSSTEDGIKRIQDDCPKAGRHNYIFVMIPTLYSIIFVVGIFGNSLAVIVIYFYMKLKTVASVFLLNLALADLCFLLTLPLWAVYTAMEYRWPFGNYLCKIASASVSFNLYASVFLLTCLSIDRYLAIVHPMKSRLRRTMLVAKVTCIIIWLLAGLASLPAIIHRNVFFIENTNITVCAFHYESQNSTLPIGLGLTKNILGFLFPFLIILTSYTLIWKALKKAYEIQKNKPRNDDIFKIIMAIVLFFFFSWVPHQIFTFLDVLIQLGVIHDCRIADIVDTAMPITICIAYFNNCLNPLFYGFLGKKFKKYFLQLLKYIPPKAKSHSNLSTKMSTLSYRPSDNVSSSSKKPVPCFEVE
Procedure: On positive results with rat adrenal gland assay, assays using rabbit aorta may be employed.
Receptor binding assay using rabbit aortae membrane preparation
Three frozen rabbit aortae (obtained from Pel-Freeze Biologicals) were suspended in 5 mM Tris-0.25M Sucrose, pH 7.4 buffer (50 mL) homogenized, and then centifuged. The mixture was filtered through a cheesecloth and the supernatant was centrifuged for 30 minutes at 20,000 rpm at 4° C. The pellet thus obtained was resuspended in 30 mL of 50 mM Tris-5 mM MgCl2 buffer containing 0.2% Bovine Serum Albumin and 0.2 mg/mL Bacitracin and the suspension was used for 100 assay tubes. Samples tested for screening were done in duplicate. To the membrane preparation (0.25 mL) there was added ^125 I-Sar^1 Ile^8 -angiotensin II [obtained from New England Nuclear] ([…]; 20,000 cpm) with or without the test sample and the mixture was incubated at 37° C. for 90 minutes. The mixture was then diluted with ice-cold 50 mM Tris-0.9% NaCl, pH 7.4 (4 mL) and filtered through a glass fiber filter (GF/B Whatman 2.4" diameter). The filter was soaked in scintillation cocktail (10 mL) and counted for radioactivity using Packard 2660 Tricarb liquid scintillation counter. […]

[2] = target: T2, angiotensin II receptor, site 2 (AT-2 receptor) (Rattus norvegicus, UniProt P35351); assay: Receptor assay using rat adrenal gland preparation (125I-Angiotensin II binding), site 2
T2 construct: Adrenal membranes for the receptor assay were readied first by placing cleaned, whole adrenal glands in microcentrifuge tubes; from tissue; host or cells: rat adrenal glands (whole), membranes
T2 sequence (P35351 1-363): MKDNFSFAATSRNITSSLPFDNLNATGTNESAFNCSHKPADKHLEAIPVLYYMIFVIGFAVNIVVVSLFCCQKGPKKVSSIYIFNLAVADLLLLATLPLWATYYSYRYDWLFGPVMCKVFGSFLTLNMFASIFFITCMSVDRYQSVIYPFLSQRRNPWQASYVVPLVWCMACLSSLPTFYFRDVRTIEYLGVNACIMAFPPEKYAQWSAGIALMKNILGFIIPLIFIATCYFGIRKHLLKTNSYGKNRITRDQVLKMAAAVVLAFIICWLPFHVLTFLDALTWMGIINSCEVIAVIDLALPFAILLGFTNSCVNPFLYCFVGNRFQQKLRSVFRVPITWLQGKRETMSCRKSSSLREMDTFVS
Text: Angiotensin II (AII) is a powerful arterial vasoconstrictor, and it exerts its action by interacting with specific receptors present on cell membranes. The compounds of the present invention are competitive antagonists of AII at receptor sites. The usefulness of compounds as AII antagonists may be determined from the results of certain receptor binding assays. The initial assay is that using rat adrenal glands and the results of this assay are described herein.
Receptor assay using rat adrenal gland preparation
Adrenal membranes for the receptor assay were readied first by placing cleaned, whole adrenal glands in microcentrifuge tubes (20 glands per tube), and freezing and storing under liquid nitrogen. As needed, a microcentrifuge tube of adrenal glands was homogenized in 20 ml 50 mM Tris-HCl pH 7.7 and centrifuged at 20,000 rpm for 15 minutes at 4° C. […]
For the assay, the adrenal membrane preparation in one vial was resuspended in 30 ml of 100 mM Tris-HCl pH 7.4 with 5 mM MgCl2, 0.2% bovine serum albumin and 0.2 mg/ml bacitracin. […] The vials are counted with a gamma counter for one minute and percent inhibition determined from counts/min (CPM) as follows: [formula] The IC50 is determined by plotting percent inhibition v. concentration of compound tested.

## CCCCCC1=C(C=O)C2OC(C)(C)C(O)CC23OC3C1=O (stereo not drawn) [Compound A]
[1]
  IC50: 25900 nM
[2]; rat adrenal membranes, 37° C., 90 minutes, site 2
  IC50: 1620 to 3240 nM and 1000 to 2000 nM
[2]; statement in words
  antagonist activity at AT-2 receptor sites: antagonist activity at AT-2 receptor sites
